Results: patent US8802849B2, “Tricyclic benzo[4,5]thieno-[2,3-d]pyrimidine-4-yl-amin derivatives, their salts, process for producing the compounds and their pharmaceutical use” (Vichem Chemie Kutató Kft., priority 2008, dated 2014)

Assays:
EGFR = EGFR (Homo sapiens, UniProt P00533); test: EGFR kinase assay (33P-ATP filter plate); assay type: biochemical; conditions: for inhibition at 10 µM: 10 μM compound, read-out: EGFR percent of inhibition; for IC50: EGFR-PTK assay
Method: (§1) General description of the kinase assays: the kinase activity was assayed in 96-well microtiter plates at a final compound concentration of 10 μM in a total volume of 50 μl. Compounds were dissolved in 100% DMSO to prepare a 10 mM stock solution and than diluted with buffer to reach a 10 μM (or the required) final concentration. The kinase concentration was used to yield 10% ATP turn over. The ATP concentration was used at the KmATP and 12.5 μCi/ml adenosine 5′[γ-33P]triphosphate. The substrate concentration was used at 5 fold excess over the Km for the substrate. The reaction was incubated for 1 hour at room temperature and stopped by addition of 10 μl 50 mM EDTA. The assay was transferred to a 96 well MAPH filter plate (Millipore). The radioactivity was counted on a Microbeta microplate counter.

AKT1/PKBa = AKT1/PKBa (Homo sapiens, UniProt P31749); test: AKT1/PKBa kinase assay; assay type: biochemical; conditions: 10 μM compound; read-out: AKT1/PKBa percent of inhibition
Method: as §1

Abl = Abl (Homo sapiens, UniProt P00519); test: Abl kinase assay; assay type: biochemical; conditions: 10 μM compound; read-out: Abl percent of inhibition
Sequence of Abl (P00519 whole entry, species assumed): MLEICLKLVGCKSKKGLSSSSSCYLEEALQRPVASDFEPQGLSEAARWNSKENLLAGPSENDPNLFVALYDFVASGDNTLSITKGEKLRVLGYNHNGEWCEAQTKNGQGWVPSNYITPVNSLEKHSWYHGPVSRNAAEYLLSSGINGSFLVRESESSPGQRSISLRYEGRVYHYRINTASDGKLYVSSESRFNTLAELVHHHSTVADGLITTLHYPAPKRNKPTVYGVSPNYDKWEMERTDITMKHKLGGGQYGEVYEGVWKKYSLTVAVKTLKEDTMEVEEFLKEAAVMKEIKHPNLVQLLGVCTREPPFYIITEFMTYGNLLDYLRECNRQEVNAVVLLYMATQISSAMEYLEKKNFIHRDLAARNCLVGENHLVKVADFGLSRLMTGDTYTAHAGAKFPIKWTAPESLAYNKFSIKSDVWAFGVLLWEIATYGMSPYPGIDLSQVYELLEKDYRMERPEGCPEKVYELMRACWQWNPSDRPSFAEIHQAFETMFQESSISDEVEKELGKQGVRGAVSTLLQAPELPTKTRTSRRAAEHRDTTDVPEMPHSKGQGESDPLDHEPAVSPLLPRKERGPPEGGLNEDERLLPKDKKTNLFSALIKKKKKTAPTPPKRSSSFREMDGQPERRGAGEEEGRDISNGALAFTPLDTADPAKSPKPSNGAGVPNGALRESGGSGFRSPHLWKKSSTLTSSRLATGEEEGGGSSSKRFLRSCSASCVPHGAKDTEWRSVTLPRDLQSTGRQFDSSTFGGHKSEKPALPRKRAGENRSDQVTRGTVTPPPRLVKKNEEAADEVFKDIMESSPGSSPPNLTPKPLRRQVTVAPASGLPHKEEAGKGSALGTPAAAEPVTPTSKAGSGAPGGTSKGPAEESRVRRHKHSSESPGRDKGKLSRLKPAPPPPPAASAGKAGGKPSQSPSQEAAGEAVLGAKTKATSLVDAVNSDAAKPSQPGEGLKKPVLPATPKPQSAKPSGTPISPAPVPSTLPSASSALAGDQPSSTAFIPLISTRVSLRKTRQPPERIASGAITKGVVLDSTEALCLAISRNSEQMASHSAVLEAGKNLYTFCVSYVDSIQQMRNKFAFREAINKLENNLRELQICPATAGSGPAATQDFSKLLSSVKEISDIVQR
Method: as §1

CDK2/CycA = CDK2/CycA (Homo sapiens, UniProt P24941); test: CDK2/CycA kinase assay; assay type: biochemical; conditions: 10 μM compound; read-out: CDK2/CycA percent of inhibition
Method: as §1

CK1-alpha = CK1-alpha (Homo sapiens, UniProt P48729); test: CK1-alpha kinase assay; assay type: biochemical; conditions: 10 μM compound; read-out: CK1-alpha percent of inhibition
Sequence of CK1-alpha (P48729 whole entry): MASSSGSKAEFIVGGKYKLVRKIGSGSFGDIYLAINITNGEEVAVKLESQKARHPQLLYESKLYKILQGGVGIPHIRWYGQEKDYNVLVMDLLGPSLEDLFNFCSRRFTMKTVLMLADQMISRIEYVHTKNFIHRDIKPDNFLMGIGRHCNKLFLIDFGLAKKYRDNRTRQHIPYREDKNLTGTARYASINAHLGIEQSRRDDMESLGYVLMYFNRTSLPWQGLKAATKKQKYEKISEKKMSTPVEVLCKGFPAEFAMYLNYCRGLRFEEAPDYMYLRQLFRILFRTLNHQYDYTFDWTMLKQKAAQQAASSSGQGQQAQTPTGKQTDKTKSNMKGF
Method: as §1

GSK-3beta = GSK-3beta (Homo sapiens, UniProt P49841); test: GSK-3beta kinase assay; assay type: biochemical; conditions: 10 μM compound; read-out: GSK-3beta percent of inhibition
Method: as §1

IKK-beta = target: T1, IKK-beta (Homo sapiens, UniProt O14920); test: IKK-beta kinase assay; assay type: biochemical; conditions: 10 μM compound; read-out: IKK-beta percent of inhibition
T1 sequence (O14920 1-756): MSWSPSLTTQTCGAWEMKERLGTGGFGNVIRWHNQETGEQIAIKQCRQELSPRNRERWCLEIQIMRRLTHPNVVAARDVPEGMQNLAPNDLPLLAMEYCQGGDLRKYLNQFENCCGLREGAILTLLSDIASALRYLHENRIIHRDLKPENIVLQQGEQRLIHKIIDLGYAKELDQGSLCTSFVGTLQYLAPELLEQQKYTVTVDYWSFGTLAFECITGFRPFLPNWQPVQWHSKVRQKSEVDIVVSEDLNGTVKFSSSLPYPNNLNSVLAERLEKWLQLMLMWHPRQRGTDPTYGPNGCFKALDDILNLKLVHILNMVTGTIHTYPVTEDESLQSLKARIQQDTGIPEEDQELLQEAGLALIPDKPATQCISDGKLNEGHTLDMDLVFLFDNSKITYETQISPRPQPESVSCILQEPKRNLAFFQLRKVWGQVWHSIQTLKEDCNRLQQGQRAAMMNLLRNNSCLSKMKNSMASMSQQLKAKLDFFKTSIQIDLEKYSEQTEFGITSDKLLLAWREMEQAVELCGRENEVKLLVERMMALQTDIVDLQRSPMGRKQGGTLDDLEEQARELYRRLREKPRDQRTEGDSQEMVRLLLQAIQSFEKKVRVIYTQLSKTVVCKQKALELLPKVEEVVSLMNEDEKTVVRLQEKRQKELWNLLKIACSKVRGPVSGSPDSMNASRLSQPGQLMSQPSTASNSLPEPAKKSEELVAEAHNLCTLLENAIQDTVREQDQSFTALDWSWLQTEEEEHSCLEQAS
Method: as §1

InsR = InsR (Homo sapiens, UniProt P06213); test: InsR kinase assay; assay type: biochemical; conditions: 10 μM compound; read-out: InsR percent of inhibition
Method: as §1

Jnk1a1 = Jnk1a1 (Homo sapiens, UniProt P45983); test: Jnk1a1 kinase assay; assay type: biochemical; conditions: 10 μM compound; read-out: Jnk1a1 percent of inhibition
Method: as §1

Kit = Kit (Homo sapiens, UniProt P10721); test: Kit kinase assay; assay type: biochemical; conditions: 10 μM compound; read-out: Kit percent of inhibition
Method: as §1

MAPK-ERK1 = MAPK-ERK1 (Homo sapiens, UniProt P27361); test: MAPK-ERK1 kinase assay; assay type: biochemical; conditions: 10 μM compound; read-out: MAPK-ERK1 percent of inhibition
Method: as §1

PDGFR-beta = PDGFR-beta (Homo sapiens, UniProt P09619); test: PDGFR-beta kinase assay; assay type: biochemical; conditions: 10 μM compound; read-out: PDGFR-beta percent of inhibition
Method: as §1

ROCK2 = ROCK2 (Homo sapiens, UniProt O75116); test: ROCK2 kinase assay; assay type: biochemical; conditions: 10 μM compound; read-out: ROCK2 percent of inhibition
Sequence of ROCK2 (O75116 whole entry, species assumed): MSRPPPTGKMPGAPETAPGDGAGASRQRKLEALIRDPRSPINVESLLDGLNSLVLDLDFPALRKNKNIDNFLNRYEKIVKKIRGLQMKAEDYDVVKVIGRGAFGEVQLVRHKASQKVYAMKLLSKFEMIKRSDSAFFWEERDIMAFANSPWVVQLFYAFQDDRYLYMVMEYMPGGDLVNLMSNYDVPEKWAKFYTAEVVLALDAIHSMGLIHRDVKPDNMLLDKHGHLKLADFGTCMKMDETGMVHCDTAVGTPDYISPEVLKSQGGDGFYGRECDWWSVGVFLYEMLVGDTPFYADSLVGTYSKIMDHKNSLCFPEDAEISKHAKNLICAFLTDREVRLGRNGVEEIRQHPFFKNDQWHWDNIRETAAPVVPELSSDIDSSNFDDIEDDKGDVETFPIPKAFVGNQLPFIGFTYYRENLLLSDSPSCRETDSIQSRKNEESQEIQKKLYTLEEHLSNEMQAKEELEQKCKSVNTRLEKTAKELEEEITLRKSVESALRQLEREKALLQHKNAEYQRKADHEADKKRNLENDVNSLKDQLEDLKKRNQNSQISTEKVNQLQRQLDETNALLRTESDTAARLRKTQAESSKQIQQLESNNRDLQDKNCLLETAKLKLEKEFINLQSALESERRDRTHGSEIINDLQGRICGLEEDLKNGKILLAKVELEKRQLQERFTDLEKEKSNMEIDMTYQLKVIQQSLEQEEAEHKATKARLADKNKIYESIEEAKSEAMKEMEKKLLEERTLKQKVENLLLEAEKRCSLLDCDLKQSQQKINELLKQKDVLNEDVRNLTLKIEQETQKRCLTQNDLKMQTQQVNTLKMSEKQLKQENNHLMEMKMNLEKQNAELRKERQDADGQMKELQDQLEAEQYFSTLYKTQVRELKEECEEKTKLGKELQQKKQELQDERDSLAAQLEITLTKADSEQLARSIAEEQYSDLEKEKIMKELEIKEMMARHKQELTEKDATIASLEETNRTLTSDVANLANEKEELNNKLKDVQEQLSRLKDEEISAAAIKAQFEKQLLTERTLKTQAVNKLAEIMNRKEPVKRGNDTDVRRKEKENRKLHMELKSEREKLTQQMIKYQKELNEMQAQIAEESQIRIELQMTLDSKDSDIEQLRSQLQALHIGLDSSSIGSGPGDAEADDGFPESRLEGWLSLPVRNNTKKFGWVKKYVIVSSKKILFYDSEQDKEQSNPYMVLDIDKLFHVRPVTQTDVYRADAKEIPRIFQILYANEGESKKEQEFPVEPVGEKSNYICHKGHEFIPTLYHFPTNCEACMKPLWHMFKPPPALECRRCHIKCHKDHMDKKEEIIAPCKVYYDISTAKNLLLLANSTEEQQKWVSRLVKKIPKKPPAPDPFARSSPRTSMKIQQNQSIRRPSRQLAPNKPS
Method: as §1

RSK1 = RSK1 (Homo sapiens, UniProt Q15418); test: RSK1 kinase assay; assay type: biochemical; conditions: 10 μM compound; read-out: RSK1 percent of inhibition
Method: as §1

SRPK1 = SRPK1 (Homo sapiens, UniProt Q96SB4); test: SRPK1 kinase assay; assay type: biochemical; conditions: 10 μM compound; read-out: SRPK1 percent of inhibition
Method: as §1

c-Raf = c-Raf (Homo sapiens, UniProt P04049); test: c-Raf kinase assay; assay type: biochemical; conditions: 10 μM compound; read-out: c-Raf percent of inhibition
Method: as §1

c-Src = c-Src (Homo sapiens, UniProt P12931); test: c-Src kinase assay; assay type: biochemical; conditions: 10 μM compound; read-out: c-Src percent of inhibition
Method: as §1

cMet = cMet (Homo sapiens, UniProt P08581); test: cMet kinase assay; assay type: biochemical; conditions: 10 μM compound; read-out: cMet percent of inhibition
Sequence of cMet (P08581 25-1390): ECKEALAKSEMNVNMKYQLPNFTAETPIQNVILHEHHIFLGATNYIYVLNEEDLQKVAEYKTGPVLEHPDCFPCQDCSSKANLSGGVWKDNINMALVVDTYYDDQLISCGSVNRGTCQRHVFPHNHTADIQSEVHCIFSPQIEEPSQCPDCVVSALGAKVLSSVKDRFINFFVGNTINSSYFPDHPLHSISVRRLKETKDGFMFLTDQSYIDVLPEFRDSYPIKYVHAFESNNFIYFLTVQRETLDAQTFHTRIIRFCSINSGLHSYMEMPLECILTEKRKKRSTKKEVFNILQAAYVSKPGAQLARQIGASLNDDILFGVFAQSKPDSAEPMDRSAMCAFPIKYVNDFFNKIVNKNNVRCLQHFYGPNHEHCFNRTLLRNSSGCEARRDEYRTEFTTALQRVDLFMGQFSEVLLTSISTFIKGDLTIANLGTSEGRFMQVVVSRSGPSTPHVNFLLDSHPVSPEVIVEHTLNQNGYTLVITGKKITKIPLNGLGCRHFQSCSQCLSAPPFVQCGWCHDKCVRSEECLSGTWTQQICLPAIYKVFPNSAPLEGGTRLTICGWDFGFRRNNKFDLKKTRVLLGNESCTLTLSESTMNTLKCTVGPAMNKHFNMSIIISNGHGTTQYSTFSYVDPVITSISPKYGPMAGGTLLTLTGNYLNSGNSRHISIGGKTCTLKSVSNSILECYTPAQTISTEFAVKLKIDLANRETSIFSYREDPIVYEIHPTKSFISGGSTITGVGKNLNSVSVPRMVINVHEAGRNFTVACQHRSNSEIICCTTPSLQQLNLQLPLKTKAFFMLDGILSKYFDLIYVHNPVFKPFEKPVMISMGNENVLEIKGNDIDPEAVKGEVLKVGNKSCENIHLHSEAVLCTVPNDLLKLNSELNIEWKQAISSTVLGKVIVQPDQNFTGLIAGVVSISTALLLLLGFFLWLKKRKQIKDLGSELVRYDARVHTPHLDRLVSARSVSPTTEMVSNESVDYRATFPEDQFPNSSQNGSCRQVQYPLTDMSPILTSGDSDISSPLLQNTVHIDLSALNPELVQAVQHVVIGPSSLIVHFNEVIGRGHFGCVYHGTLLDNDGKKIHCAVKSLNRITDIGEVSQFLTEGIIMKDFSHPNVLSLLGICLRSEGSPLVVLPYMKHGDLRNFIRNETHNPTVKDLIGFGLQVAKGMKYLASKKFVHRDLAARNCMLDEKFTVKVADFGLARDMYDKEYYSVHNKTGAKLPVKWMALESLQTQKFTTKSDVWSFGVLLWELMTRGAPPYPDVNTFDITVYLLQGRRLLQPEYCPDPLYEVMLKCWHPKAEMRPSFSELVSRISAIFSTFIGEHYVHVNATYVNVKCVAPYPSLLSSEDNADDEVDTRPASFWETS
Method: as §1

P56Lck = P56Lck (Homo sapiens, UniProt P06239); test: P56Lck kinase assay; assay type: biochemical; conditions: 10 μM compound; read-out: P56Lck percent of inhibition
Method: as §1

P70S6K = P70S6K (Homo sapiens, UniProt P23443); test: P70S6K kinase assay; assay type: biochemical; conditions: 10 μM compound; read-out: P70S6K percent of inhibition
Sequence of P70S6K (P23443 whole entry): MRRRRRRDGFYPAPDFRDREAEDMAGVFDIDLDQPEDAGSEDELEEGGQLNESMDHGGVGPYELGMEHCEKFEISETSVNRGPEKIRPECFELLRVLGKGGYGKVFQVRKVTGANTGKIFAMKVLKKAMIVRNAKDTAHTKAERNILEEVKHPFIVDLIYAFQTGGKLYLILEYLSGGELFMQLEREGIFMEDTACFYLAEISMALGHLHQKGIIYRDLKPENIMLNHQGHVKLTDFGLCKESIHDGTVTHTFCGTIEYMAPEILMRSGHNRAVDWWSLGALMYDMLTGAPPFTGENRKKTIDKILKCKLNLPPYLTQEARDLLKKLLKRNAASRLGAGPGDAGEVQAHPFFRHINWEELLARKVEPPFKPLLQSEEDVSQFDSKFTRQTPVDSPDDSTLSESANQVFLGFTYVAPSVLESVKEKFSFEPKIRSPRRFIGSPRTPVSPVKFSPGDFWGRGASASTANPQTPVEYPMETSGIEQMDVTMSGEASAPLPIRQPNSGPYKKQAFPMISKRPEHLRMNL
Method: as §1

Row | Compound | inhibition at 10 µM (EGFR) [%] | inhibition at 10 µM (AKT1/PKBa) [%] | inhibition at 10 µM (Abl) [%] | inhibition at 10 µM (CDK2/CycA) [%] | inhibition at 10 µM (CK1-alpha) [%] | inhibition at 10 µM (GSK-3beta) [%] | inhibition at 10 µM (IKK-beta) [%] | inhibition at 10 µM (InsR) [%] | inhibition at 10 µM (Jnk1a1) [%] | inhibition at 10 µM (Kit) [%] | inhibition at 10 µM (MAPK-ERK1) [%] | inhibition at 10 µM (PDGFR-beta) [%] | inhibition at 10 µM (ROCK2) [%] | inhibition at 10 µM (RSK1) [%] | inhibition at 10 µM (SRPK1) [%] | inhibition at 10 µM (c-Raf) [%] | inhibition at 10 µM (c-Src) [%] | inhibition at 10 µM (cMet) [%] | inhibition at 10 µM (P56Lck) [%] | inhibition at 10 µM (P70S6K) [%] | further results
1 | Clc1cccc(Nc2nc(C3CC3)nc3sc4ccccc4c23)c1 [Compound 17, (2-Cyclopropyl-benzo[4,5]thieno[2,3-d]pyrimidin-4-yl)-(3-chloro-phenyl)-amine] | 86 | -1 | 7 | -2 | 0 | 3 | 8 | -5 | -8 | 11 | 2 | 0 | 2 | -7 | 9 | 12 | 1 | -5 | 9 | 7 | melting point: 188 °C
2 | Oc1cccc(Nc2nc(C3CC3)nc3sc4ccccc4c23)c1 [Compound 19, 3-(2-Cyclopropyl-benzo[4,5]thieno[2,3-d]pyrimidin-4-ylamino)-phenol] | 54 | -5 | 3 | -12 | 9 | 7 | 12 | 11 | -2 | 3 | 2 | -1 | 7 | -11 | 3 | -4 | 11 | -12 | 3 | 3 | melting point: 222 °C
3 | Fc1cccc(Nc2ncnc3sc4c(c23)CCCC4)c1 [Compound 2, (3-Fluoro-phenyl)-(5,6,7,8-tetrahydro-benzo[4,5]thieno[2,3-d]pyrimidin-4-yl)-amine] | 98 | -7 | -19 | -1 | 6 | 3 | 19 | -6 | -3 | -5 | -14 | 4 | 6 | -22 | -5 | 16 | 6 | -10 | 25 | -26 | IC50 (EGFR): 0.0124 µM; melting point: 210.6 °C
4 | Fc1cccc(Nc2ncnc3sc4ccccc4c23)c1 [Compound 21, Benzo[4,5]thieno[2,3-d]pyrimidin-4-yl-(3-fluoro-phenyl)-amine] | 98 | 3 | -4 | -10 | 0 | 3 | 2 | 7 | -2 | -4 | 1 | -3 | 4 | 1 | 8 | -2 | 3 | 1 | -9 | 7 | IC50 (EGFR): 0.0269 µM; melting point: 171 °C

The next lines start with results.

Row | inhibition at 10 µM (EGFR) [%] | inhibition at 10 µM (AKT1/PKBa) [%] | inhibition at 10 µM (Abl) [%] | inhibition at 10 µM (CDK2/CycA) [%] | inhibition at 10 µM (CK1-alpha) [%] | inhibition at 10 µM (GSK-3beta) [%] | inhibition at 10 µM (IKK-beta) [%] | inhibition at 10 µM (InsR) [%] | inhibition at 10 µM (Jnk1a1) [%] | inhibition at 10 µM (Kit) [%] | inhibition at 10 µM (MAPK-ERK1) [%] | inhibition at 10 µM (PDGFR-beta) [%] | inhibition at 10 µM (ROCK2) [%] | inhibition at 10 µM (RSK1) [%] | inhibition at 10 µM (SRPK1) [%] | inhibition at 10 µM (c-Raf) [%] | inhibition at 10 µM (c-Src) [%] | inhibition at 10 µM (cMet) [%] | inhibition at 10 µM (P56Lck) [%] | inhibition at 10 µM (P70S6K) [%] | Compound | further results
5 | 9 | -9 | 12 | -14 | 5 | -6 | 12 | 23 | -3 | 1 | 6 | -7 | 9 | 8 | 12 | -13 | 5 | -6 | -5 | 4 | COc1cccc(Nc2nc(C3CC3)nc3sc4c(c23)CCCC4)c1 [Compound 15, (2-Cyclopropyl-5,6,7,8-tetrahydro-benzo[4,5]thieno[2,3-d]pyrimidin-4-yl)-(3-methoxy-phenyl)-amine] | melting point: 186.7 °C
6 | 98 | 1 | -7 | 16 | 5 | -2 | 12 | -7 | 6 | 2 | 8 | 0 | 7 | 6 | 6 | 14 | 24 | 2 | 9 | 2 | Nc1cccc(Nc2ncnc3sc4c(c23)CCCC4)c1 [Compound 4, N-(5,6,7,8-Tetrahydro-benzo[4,5]thieno[2,3-d]pyrimidin-4-yl)-benzene-1,3-diamine] | IC50 (EGFR): 0.0168 µM; melting point: 164.3 °C (dec.)
7 | 23 | 0 | -2 | -11 | 4 | -8 | 10 | 2 | -12 | -12 | 9 | -5 | 6 | -12 | 18 | -3 | 3 | 3 | 3 | 6 | Oc1cccc(Nc2nc(C3CC3)nc3sc4c(c23)CCCC4)c1 [Compound 10, 3-(2-Cyclopropyl-5,6,7,8-tetrahydro-benzo[4,5]thieno[2,3-d]pyrimidin-4-ylamino)-Phenol] | melting point: 239.7 °C
